Where two headings read alike, the source gives them in different places.
Columns and labels:
[1] = target: SARS-CoV-2 NSP3 macrodomain (Mac1), P43 crystal form (Severe acute respiratory syndrome coronavirus 2, UniProt P0DTD1); type: binding; conditions: for binding by crystal soaking: P43 crystal form, repeated attempts, in words
[2] = target: SARS-CoV-2 NSP3 macrodomain (Mac1) (Severe acute respiratory syndrome coronavirus 2, UniProt P0DTD1); assay: biochemical; type: binding; conditions: for IC50: Dose-response, SARS CoV-2 macrodomain HTRF assay, read-out: IC50
[3] = ligand modeling in Mac1 crystal structure
[4] = Single dose, 200 μM, mean of three technical replicates

Row | Structure (SMILES) | Average % competition [2] [%] | other results
1 | c1ccc(-n2nnnc2CSc2nnc(NC3CC3)s2)cc1 [AVI-286] |  | Isomers modeled [1]: achiral; Number of isomers bound [1]: 1
2 | CC1c2ccsc2CCN1C(=O)Cc1csc(-c2ccccc2)n1 (centres unmarked) [AVI-287] | 0 | 
3 | O=C(O)C(c1ccccc1)n1sc2ccccc2c1=O (centres unmarked) [AVI-288] |  | Number of isomers bound [1, 3]: 1
4 | O=C1COc2cc(C(=O)N3CC(C(=O)O)c4ccccc43)ccc2N1 (centres unmarked) [AVI-289] |  | IC50 [2]: > 1000 µM; Average % competition [2, 4]: 21%
5 | COC1CCCN(S(=O)(=O)c2cc(Cl)cnc2N)C1 (centres unmarked) [AVI-290] |  | binding by crystal soaking [1]: failed to observe binding
6 | CC(C)n1nnnc1SCc1c(C(=O)O)sc2cccc(F)c12 [AVI-291] |  | Number of isomers bound [1, 3]: 1; Isomers modeled ([1]; stereoisomer(s) modeled in Mac1 crystal structure): achiral
7 | Cc1nc2cc(NC(=O)C3CC(=O)Nc4ccccc43)ccc2o1 (centres unmarked) [AVI-292] | 0 | 
8 | Cc1ncc(CN(C)C(=O)c2cccc(N)c2F)s1 [AVI-293] |  | IC50 [2]: > 1000 µM; Average % competition [2, 4]: 14%
9 | CC1CN(C(=O)c2ccccc2S(C)(=O)=O)c2cccnc2O1 (centres unmarked) [AVI-294] | 13 | 
10 | Nc1ncc(Cl)cc1S(=O)(=O)N1CCCC(O)C1 (centres unmarked) [AVI-295] |  | binding by crystal soaking [1]: failed to observe binding
11 | Nc1nnc(SCCn2c(=O)oc3ccccc32)s1 [AVI-296] |  | Isomers modeled [1]: achiral; Number of isomers bound [1]: 1
12 | CCCC1CCCC1C(=O)N[C@H]1CCc2nc(N)sc2C1 (some centres unmarked) [AVI-298] | <10 | 
13 | CC(=O)Nc1ccc(S(=O)(=O)CCCN2C(=O)CC(C)(C(C)C)C2=O)cc1 (centres unmarked) [AVI-299] | 19 | 
14 | O=C(NCCCN1C(=O)NC2(CCCC2)C1=O)c1ccc(O)nc1 [AVI-300] | 8 | 
15 | Cc1ccc2c(c1)C(=O)N(CCC(=O)Nc1cnc3c(c1)c(C)nn3C)C2=O [AVI-301] | 16 | 
16 | Cc1nnc2n1CCN(C(=O)CN1C(=O)CCOc3ccccc31)C2 [AVI-302] | 0 | 
17 | CC(OC(=O)c1ccc2nc(N)sc2c1)C(=O)N1CCCCCC1 (centres unmarked) [AVI-304] | 0 | 
18 | CNC(=O)c1ccc(NC(=O)C2CC(=O)Nc3ccccc32)cc1 (centres unmarked) [AVI-305] | 0 | 
19 | Cc1nc(-c2cccc(NC(=O)NCc3cccs3)c2)n[nH]1 [AVI-306] |  | IC50 [2]: > 1000 µM; Average % competition [2, 4]: 20%
20 | O=C1CC(C(=O)Nc2nc3c(s2)CCCC3)c2ccccc2N1 (centres unmarked) [AVI-307] | 0 | 

Row | Structure (SMILES) | Average % competition [2] [%] | other results
21 | c1ccn2c(Sc3ncnc4ccsc34)nnc2c1 [AVI-308] | 0 | 
22 | CNS(=O)(=O)c1cc(C(=O)N2CCOc3ccccc32)n(C)c1 [AVI-309] | 0 | 
23 | Cc1ccc(O)c(C(=O)c2cnn3c(N)nnc3c2)c1 [AVI-310] | 0 | 
24 | Nc1ccc(F)c(C(=O)NCc2cnc(O)nc2O)c1F [AVI-312] | <10 | 
25 | O=C(O)C1CN(C(=O)c2cccc3[nH]ccc23)c2ccccc21 (centres unmarked) [AVI-314] |  | IC50 [2]: > 1000 µM; Average % competition [2, 4]: 32%
26 | CC(=O)Nc1ccc(NC(=O)CSc2nnnn2C2CCCC2)cc1 [AVI-315] | 0 | 
27 | O=C(Nc1ccsc1C(=O)O)c1ccc2c(c1)OCO2 [AVI-316] |  | Number of isomers bound ([1]; ligand modeling in Mac1 crystal soak): 1; Isomers modeled ([1]; stereoisomer(s) of ligand modeled in Mac1 crystal structure): achiral
28 | O=C(c1cc(C2CCCCC2)[nH]n1)N1CCCC(O)(C(F)(F)F)CC1 (centres unmarked) [AVI-318] | 13 | 
29 | O=C(O)C1CN(C(=O)c2ccc3[nH]nnc3c2)c2ccccc21 (centres unmarked) [AVI-319] | 25 | 
30 | Cc1ccc(C)c(CN2C(=O)NC(C)(Cc3ccc4c(c3)OCO4)C2=O)c1 (centres unmarked) [AVI-320] | 18 | 
31 | Cc1noc(NCc2cc3ccccc3nc2O)n1 [AVI-322] | 0 | 
32 | O=C(O)C1CN(C(=O)c2ccc3c(c2)OCCO3)CCO1 (centres unmarked) [AVI-323] | 7 | 
33 | Nc1ncnc(N2CCC(C(F)(F)F)C3(CCC3)C2)c1Cl (centres unmarked) [AVI-324] | <10 | 
34 | CCOc1ccc(-c2nc(CC(=O)N3CCn4cccc4C3C)cs2)cc1 (centres unmarked) [AVI-325] | 0 | 
35 | O=C(O)C1CCc2nnc(-c3ccc(F)cc3)n2C1 (centres unmarked) [AVI-326] | 15 | 
36 | Cc1nn(C)c2sc(C(=O)N3CC(C(=O)O)c4ccccc43)cc12 (centres unmarked) [AVI-327] | 0 | 
37 | Cc1ccc2c(c1)CC[C@@H](C(=O)Nc1nnc3n1CCCC3)O2 [AVI-329] |  | Number of isomers bound [1]: 1
38 | NC(=O)N1CCC[C@H]1C(=O)Nc1ccc2ncnn2c1 [AVI-330] | 14 | 
39 | Nc1ncnc2sc3c(c12)CCN(C(=O)[C@H]1CC=CCC1)C3 [AVI-331] | <10 | 

Reference: paper doi:10.1101/2024.08.25.609621 (bioRxiv, 2024)
